Tests used:
OSC2 cells = assay: BrdU incorporation assay, OSC2 (OSC-2) cells; assay type: cell-based, human
Procedure: DNA synthesis analysis using BrdU incorporation method. The BrdU cell proliferation kit was purchased from Oncogene Research Products, Boston, Mass. Cells were culture in 96 well plates with 10^4 cells/well. After EGCG and GTPPs treatments, cells were labeled by BrdU, reacted with BrdU antibody and the color reaction was carried out according to the protocol provided by the manufacturer. The coloration was measure by a Thermo MAX microplate reader using wavelengths 450 nm-562 nm.
(§1) DNA synthesis assay. DNA synthesis was analyzed by a BrdU Cell Proliferation Assay Kit (Oncogene Research Products, Boston, Mass.). […] After the treatment, cells were labeled with BrdU for 2 hours at 37° C. and reacted with anti-BrdU antibody. Unbound antibody in each well was removed by rinsing, and horseradish peroxidase-conjugated goat anti-mouse antibody was added to each well. The color reaction was visualized according to the protocol provided by the manufacturer.
as §1, with “cell proliferation assay kit” for “Cell Proliferation Assay Kit”, “anti-mouse IgG” for “anti-mouse”, “reaction to visualize the secondary antibody” for “reaction”, “carried out” for “visualized”

OSC-4 cells = assay: MTT assay (SDH activity), OSC-4 cells; assay type: cell-based, human; conditions: 24 hours
Procedure: MTT [3-(4,5-dimethylthiazol-2-yl)-2,5-diphenyl tetrazolium bromide] assay. This method directly detects the activity of mitochondrial succinate dehydrogenase (SDH). Changes in SDH activity is a measurement of cell viability when stress is introduced in cell culture through chemical or physical means. Cells (1.5×10^4 cells/well) were seeded in a 96-well microplate and treated with the indicated doses of EGCG for 24 hours. After the treatment, the cells in each well were washed with 200 μl of phosphate-buffered saline (PBS), incubated with 100 μl of 2% MTT in a solution of 0.05 M Tris, 0.5 mM MgCl2, 2.5 mM CoCl2, and 0.25 M disodiumn succinate as substrate (Sigma) at 37° C. for 30 minutes. Cells were fixed in situ by the addition of 100 μl of 4% formalin in 0.2 M Tris (pH 7.7), and after a 5 minute incubation at room temperature liquid was removed and the wells were allowed to dry. Each well was rinsed with 200 μl water and cells were solubilized by the addition of 100 μl of 6.35% 0.1 N NaOH in DMSO. The colored formazan product was measured by a Thermo MAX micro plate reader (Molecular Devices Corp., Sunnyvale, Calif.) at a wavelength of 562 nm. Experiments were repeated three times with triplicate samples for each experiment.

[1] = tested on: aged normal human primary epidermal keratinocytes; assay: BrdU incorporation assay, aged keratinocytes; assay type: cell-based; conditions: EGCG 15-50 μM, 15-day and 20-day keratinocytes
Procedure: Culturing normal human epithelial cells. The pooled normal human primary epidermal keratinocytes were purchased from Cambrex (Baltimore, Md.) and sub-cultured in the specific growth media provided by the manufacturer (KGM-2). […] Exponentially growing keratinocytes were treated and harvested in their early passages (2-3 passages). […] Analysis of DNA synthesis using the BrdU incorporation method. The BrdU cell proliferation kit was purchased from Oncogene Research Products (Boston, Mass.). […] Experiments were repeated three times in triplicate for each experiment.

caspase 14 = assay: Apoptosis macroarray, caspase 14 mRNA in NHEK; assay type: cell-based, human
Procedure: To identify additional factors those suppress EGCG -induced apoptosis and facilitate cell differentiation in NHEK, exponentially growing NHEK (Cambrex, Baltimore, Md.) were exposed to 100 μM EGCG for 0, 2, 6 and 24 hours, prior to total RNA isolation using the Qiagen RNeasy mini kit (Valencia, Calif.), which was followed by RT-PCR labeling and hybridization with the Human Apoptosis Macroarray membrane (Sigma-Genosys, The Woodlands, Tex.). Total cell lysates also were collected following a variety of EGCG treatments. The protein levels for caspase 14 and p21 were determined by immuno-blotting using antibodies specific for caspase 14 and p21 (Santa Cruz Biotechnology, Santa Cruz, Calif.).
Normal human epidermal keratinocytes (NHEK; Cambrex), and oral squamous cell carcinoma (OSC2) cells, originally from gingival tissue, were compared. Exponentially growing cells were exposed to 50 or 100 μM EGCG for 0 hours, 2 hours, 6 hours or 24 hours. Cells were harvested for total RNA, which was examined by apoptosis macroarrays (Sigma Genosys), followed by phosphorimagery and data analysis (GeneSpring). Protein production of expressed genes was confirmed by Western blotting of whole cell lysates.

MCF7 (C) cells = assay: Morphological analysis, MCF7(C) cells; assay type: cell-based, human; conditions: EGCG, 48 hours
Text: Cell lines and cell culture. The normal human keratinocytes (NHEK CC-2507) were purchased from Cambrex (East Rutherford, N.J.) and maintained in KGM-2 medium (Cambrex). The OSC2 cell line was previously described (Osaki et al., Eur J Cancer B Oral Oncol 1994; 30 B:296-301). The breast carcinoma MCF7 cell line was purchased from American Type Culture Collection. The MCF7(C) caspase+cell line “7-3-28 ” was established and tested as previously described (Janicke et al., J Biol Chem 1998; 273:9357-60, Blanc et al., Cancer Res 2000; 60:4386-90). These tumor cells were maintained in 45% Dulbecco's Modified Eagle's Medium (DMEM), 45% Ham's F12 medium and 10% fetal calf serum, 100 I.U/ml penicillin, 100 μg/ml streptomycin and 5 μg/ml hydrocortisone. All cell cultures were maintained in a 37° C. incubator with 5% CO2. Light microscopic photographs were taken with a SPOT RT digital camera system (Diagnostic Instruments) linked to a Nikon Phase Contrast-2 microscope at an original magnification of 200×.

[2] = tested on: normal human mammary epithelial cells (HMEC); assay: Morphology of mammary epithelial cells; assay type: cell-based; conditions: 50 μM EGCG
Procedure: Cell lines and cell culture. The normal human keratinocytes (NHEK CC-2507) were purchased from Cambrex (East Rutherford, N.J.) and maintained in KGM-2 medium (Cambrex). The OSC2 cell line was previously described in Example 1. The OSC2 subclones were established by retroviral transfection of the parental OSC2 cell line. These clones were maintained in 45% Dulbecco's Modified Eagle's Medium (DMEM), 45% Ham's F12 medium and 10% fetal calf serum, 100 I.U/ml penicillin, 100 μg/ml streptomycin and 5 μg/ml hydrocortisone. The normal human mammary epithelial cells (HMEC) were maintained in MEGM medium (Cambrex). All cell cultures were maintained in a 37° C. incubator with 5% CO2. Light photographs were taken with a SPOT RT digital camera system (Diagnostic Instruments, Sterling Heights, Mich.) linked to a Nikon Phase Contrast-2 microscope at an original magnification of 400×. Fluorescent photomicrographs were taken with a SPOT color digital camera system using the ZEISS Axiovert 10. Fluorescence was generated by a ZEISS AttoArc 2 source with an original magnification of 400×. Experiments were repeated three times.

[3] = tested on: normal human primary epidermal keratinocytes; assay: BrdU incorporation assay, exponentially growing keratinocytes; assay type: cell-based; conditions: increasing EGCG or 0.2 mg/ml GTP
Text: Analysis of DNA synthesis using the BrdU incorporation method. The BrdU cell proliferation kit was purchased from Oncogene Research Products (Boston, Mass.). […] Experiments were repeated three times in triplicate for each experiment.

For `O=C(O[C@@H]1Cc2c(O)cc(O)cc2O[C@@H]1c1cc(O)c(O)c(O)c1)c1cc(O)c(O)c(O)c1` [EGCG, (−)-epigallocatechin-3-gallate], the “BrdU incorporation, of control levels” value (OSC2 cells; 200 μM EGCG) was “approximately 75%”, the “reduction of BrdU incorporation” value (OSC2 cells; 200 μM EGCG, 24-hour period) was “approximately 25%” and the BrdU incorporation (OSC2 cells; EGCG concentrations reached 50 μM, or GTPPs) was “ceased BrdU incorporation”. For the same compound, the “mitochondrial SDH activity” value (OSC-4 cells; 50 μM EGCG) was “did not show significant changes”, the “SDH activity, of untreated control” value (OSC-4 cells; 200 μM EGCG) was “less than 75%” and the “mitochondrial SDH activity” value (OSC-4 cells; 200 μM EGCG) was “significantly reduced SDH activity and DNA synthesis”. The BrdU incorporation [1] was “slight negative impact on BrdU incorporation”, the “caspase 14 gene expression upregulated” value (caspase 14; 100 μM EGCG (Example 10)) was “at least 2 fold” and the “caspase 14 mRNA expression above control” value (caspase 14; 100 μM EGCG, 24 hours) was “approximately three”. The morphology (MCF7 (C) cells) was “significantly reduced the cell number and produced cell blebbing”, the morphology ([2]; 24 hours) was “little change in morphology” and the cell death ([2]; 48 hours) was “Significant cell death was observed”. The BrdU incorporation [3] was “slight increase of BrdU incorporation”.

— patent publication US20040191842A1, “Chemopreventive and therapeutic aspects of polyphenolic compositions and assays” (Medical College of Georgia Research Institute, Inc., priority 2002, published 2004)
